We go through 24 compounds from patent publication US20040082635A1, “Fused cyclic compounds and medicinal use thereof” (priority 2001, published 2004).

Structures are written as SMILES. Counter-ions that a name gives are not always drawn.

T1 sequence (P26663 2420-3010): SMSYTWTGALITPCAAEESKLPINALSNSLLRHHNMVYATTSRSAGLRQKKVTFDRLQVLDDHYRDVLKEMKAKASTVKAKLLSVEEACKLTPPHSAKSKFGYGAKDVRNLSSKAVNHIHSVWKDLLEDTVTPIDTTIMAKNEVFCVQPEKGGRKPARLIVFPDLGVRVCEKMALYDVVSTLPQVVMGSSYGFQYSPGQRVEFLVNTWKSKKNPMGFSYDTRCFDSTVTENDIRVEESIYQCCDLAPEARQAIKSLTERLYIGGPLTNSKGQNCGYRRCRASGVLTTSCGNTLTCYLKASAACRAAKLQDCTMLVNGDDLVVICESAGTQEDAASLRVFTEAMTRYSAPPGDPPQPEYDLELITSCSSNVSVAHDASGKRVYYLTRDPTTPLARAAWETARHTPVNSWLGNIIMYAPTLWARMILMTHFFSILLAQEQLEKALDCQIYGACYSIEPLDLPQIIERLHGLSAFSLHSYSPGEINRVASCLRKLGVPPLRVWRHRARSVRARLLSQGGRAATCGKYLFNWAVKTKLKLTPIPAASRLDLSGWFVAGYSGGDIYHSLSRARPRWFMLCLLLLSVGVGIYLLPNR

This test addresses T1, HCV polymerase (Hepatitis C virus genotype 1b, UniProt P26663).
T1 construct: a region encoding NS5B (591 amino acids; J Virol 1991 Mar, 65(3), 1105-13) was amplified by PCR; 6 His (N); made in house; host or cells: Escherichia coli
The experiment in a line: biochemical. As to conditions: read-out: HCV polymerase inhibitory activity IC50.
By IC50 is commonly meant the concentration at which inhibition is half-maximal. Take `O=C(O)c1ccc2c(c1)nc(-c1ccc(Oc3ccc(OCc4ccccc4)cc3)cc1C(F)(F)F)n2C1CCCCC1` [Example 150, 2-{4-(4-benzyloxyphenoxy)-2-trifluoromethylphenyl}-1-cyclohexylbenzimidazole-5-carboxylic acid]: the IC50 turned out to be 240 nM.
For the compound `O=C(O)c1ccc2c(c1)nc(-c1ccc(OCc3cc(Cl)ccc3-c3ccccc3C(F)(F)F)cc1)n2C1CCCCC1` [Example 151, 2-{4-[3-chloro-6-(2-trifluoromethylphenyl)benzyloxy]phenyl}-1-cyclohexylbenzimidazole-5-carboxylic acid], the 50% inhibitory concentration (IC50) was 200 nM.
For the compound `O=C(O)c1ccc2c(c1)nc(-c1ccc(Oc3ccccc3-c3ccccc3)cc1)n2C1CCCCC1` [Example 153, 2-[4-(2-biphenylyloxy)phenyl]-1-cyclohexylbenzimidazole-5-carboxylic acid], the IC50 stood at 190 nM.
The value for `O=C(O)c1ccc2c(c1)nc(-c1ccc(Oc3cccc(-c4ccccc4)c3)cc1)n2C1CCCCC1` [Example 154, 2-[4-(3-biphenylyloxy)phenyl]-1-cyclohexylbenzimidazole-5-carboxylic acid] was 76 nM; that for `CC(C)(C)OC(=O)N1CCC(COc2ccccc2Oc2ccc(-c3nc4cc(C(=O)O)ccc4n3C3CCCCC3)cc2)CC1` [Example 155, 2-{4-[2-{(1-tert-butoxycarbonyl-4-piperidyl)methoxy}phenoxy]-phenyl}-1-cyclohexylbenzimidazole-5-carboxylic acid] was 530 nM.
The figure for `CC(C)(C)OC(=O)N1CCC(COc2cccc(Oc3ccc(-c4nc5cc(C(=O)O)ccc5n4C4CCCCC4)cc3)c2)CC1` [Example 156, 2-{4-[3-{(1-tert-butoxycarbonyl-4-piperidyl)methoxy}phenoxy]-phenyl}-1-cyclohexylbenzimidazole-5-carboxylic acid] is 230 nM; for `O=C(O)c1ccc2c(c1)nc(-c1ccc(Oc3ccccc3OCC3CCNCC3)cc1)n2C1CCCCC1` [Example 160, 1-cyclohexyl-2-{4-[2-(4-piperidylmethoxy)phenoxy]phenyl}-benzimidazole-5-carboxylic acid hydrochloride] it is 240 nM.
For the compound `O=C(O)c1ccc2c(c1)nc(-c1ccc(Oc3cccc(OCC4CCNCC4)c3)cc1)n2C1CCCCC1` [Example 161, 1-cyclohexyl-2-{4-[3-(4-piperidylmethoxy)phenoxy]phenyl}-benzimidazole-5-carboxylic acid hydrochloride], the IC50 is 62 nM.
The figure for `CC(=O)N[C@@H](COc1ccc(-c2nc3cc(C(=O)O)ccc3n2C2CCCCC2)cc1)c1ccccc1` [Example 162, 2-{4-[(2R)-2-acetylamino-2-phenylethoxy]phenyl}-1-cyclohexylbenzimidazole-5-carboxylic acid] is 430 nM.
The figure for `CC(C)=CCCOc1cccc(Oc2ccc(-c3nc4cc(C(=O)O)ccc4n3C3CCCCC3)cc2)c1` [Example 163, 1-cyclohexyl-2-{4-[3-(4-methyl-3-pentenyloxy)phenoxy]phenyl}-benzimidazole-5-carboxylic acid] is 150 nM.
The value for `O=C(O)c1ccc2c(c1)nc(-c1ccc(OC[C@@H]3CCCN3Cc3ccccc3)cc1)n2C1CCCCC1` [Example 165, 2-{4-[{(2S)-1-benzyl-2-pyrrolidinyl}methoxy]phenyl}-1-cyclohexyl-benzimidazole-5-carboxylic acid hydrochloride] was 580 nM; that for `CSc1ccc(-c2ccc(Cl)cc2COc2ccc(-c3nc4cc(C(=O)O)ccc4n3C3CCCCC3)cc2)cc1` [Example 166, 2-{4-[3-chloro-6-(4-methylthiophenyl)benzyloxy]phenyl}-1-cyclohexylbenzimidazole-5-carboxylic acid] was 55 nM.
In the case of `CS(=O)(=O)c1ccc(-c2ccc(Cl)cc2COc2ccc(-c3nc4cc(C(=O)O)ccc4n3C3CCCCC3)cc2)cc1` [Example 167, 2-{4-[3-chloro-6-(4-methanesulfonylphenyl)benzyloxy]phenyl}-1-cyclohexylbenzimidazole-5-carboxylic acid], the IC50 was 33 nM.
The value for `O=C(O)c1ccc2c(c1)nc(-c1ccc(OCc3cc(Cl)ccc3-c3cccs3)cc1)n2C1CCCCC1` [Example 168, 2-{4-[3-chloro-6-(2-thienyl)benzyloxy]phenyl}-1-cyclohexylbenzimidazole-5-carboxylic acid] was 78 nM; that for `O=C(O)c1ccc2c(c1)nc(-c1ccc(OCc3cc(Cl)ccc3-c3cccc(Cl)c3)cc1)n2C1CCCCC1` [Example 169, 2-{4-[3-chloro-6-(3-chlorophenyl)benzyloxy]phenyl}-1-cyclohexylbenzimidazole-5-carboxylic acid] was 150 nM; that for `O=C(O)c1ccc2c(c1)nc(-c1ccc(OCc3cc(Cl)ccc3-c3cccnc3)cc1)n2C1CCCCC1` [Example 170, 2-{4-[3-chloro-6-(3-pyridyl)benzyloxy]phenyl}-1-cyclohexylbenzimidazole-5-carboxylic acid] was 48 nM.
On to `O=C(O)c1ccc2c(c1)nc(-c1ccc(OCc3cc(Cl)ccc3-c3ccc(F)cc3)cc1)n2C1CCCCC1` [Example 171, 2-{4-[3-chloro-6-(4-fluorophenyl)benzyloxy]phenyl}-1-cyclohexylbenzimidazole-5-carboxylic acid], for which the IC50 is 50 nM.
The value for `O=C(O)c1ccc2c(c1)nc(-c1ccc(Oc3ccc(OCc4ccccc4)cc3)c(F)c1)n2C1CCCCC1` [Example 172, 2-[4-(4-benzyloxyphenoxy)-3-fluorophenyl]-1-cyclohexylbenzimidazole-5-carboxylic acid] was 100 nM; that for `O=C(O)c1ccc2c(c1)nc(-c1ccc(OCc3cc(Cl)ccc3Br)cc1)n2C1CCCCC1` [Example 173, 2-[4-(2-bromo-5-chlorobenzyloxy)phenyl]-1-cyclohexylbenzimidazole-5-carboxylic acid] was 140 nM.
Take `O=C(O)c1ccc2c(c1)nc(-c1ccc(OCc3cc(Cl)ccc3-c3ccc(Cl)cc3)cc1F)n2C1CCCCC1` [Example 174, 2-{4-[3-chloro-6-(4-chlorophenyl)benzyloxy]-2-fluorophenyl}-1-cyclohexylbenzimidazole-5-carboxylic acid]: the half-inhibitory concentration (IC50) is 30 nM.
The value for `CC(=O)N1CCC(COc2ccccc2Oc2ccc(-c3nc4cc(C(=O)O)ccc4n3C3CCCCC3)cc2)CC1` [Example 175, 2-{4-[2-{(1-acetyl-4-piperidyl)methoxy}phenoxy]phenyl}-1-cyclohexylbenzimidazole-5-carboxylic acid] was 290 nM; that for `CC(=O)N1CCC(COc2cccc(Oc3ccc(-c4nc5cc(C(=O)O)ccc5n4C4CCCCC4)cc3)c2)CC1` [Example 176, 2-{4-[3-{(1-acetyl-4-piperidyl)methoxy}phenoxy]phenyl}-1-cyclohexylbenzimidazole-5-carboxylic acid] was 53 nM.
For the compound `C#CCOc1cccc(Oc2ccc(-c3nc4cc(C(=O)O)ccc4n3C3CCCCC3)cc2)c1` [Example 177, 1-cyclohexyl-2-{4-[3-(2-propynyloxy)phenoxy]phenyl}benzimidazole-5-carboxylic acid], the IC50 was found to be 77 nM.
For the compound `O=C(O)c1ccc2c(c1)nc(-c1ccc(Oc3cccc(OCc4cccnc4)c3)cc1)n2C1CCCCC1` [Example 178, 1-cyclohexyl-2-{4-[3-(3-pyridylmethoxy)phenoxy]phenyl}-benzimidazole-5-carboxylic acid], the concentration for half-maximal inhibition (IC50) is 52 nM.
